What was measured:
[1] = Drug uptake in tumor of human MDA-MB-231 cells xenografted athymic nude BALB/c mouse at 3 to 3.7 MBq, iv up to 10 mins by PET scanning analysis; type: ADME, organism-based, Neoplasm; settings: in vivo
[2] = Drug uptake in tumor of human MDA-MB-231 cells xenografted athymic nude BALB/c mouse at 3 to 3.7 MBq, iv up to 60 mins by PET scanning analysis; type: ADME, organism-based, Neoplasm; settings: in vivo, 1 h
Nucleic Acid = test: Ratio of drug level in liver to blood in athymic nude BALB/c mouse xenografted with human MDA-MB-231 cells at 3 to 3.7 MBq, iv after 60 mins by gamma counting; type: ADME, organism-based; settings: other tissue, 1 h
Urinary bladder = test: Drug uptake in bladder of athymic nude BALB/c mouse xenografted with human MDA-MB-231 cells at 3 to 3.7 MBq, iv at 30 to 60 mins by PET scanning analysis; type: ADME, organism-based; settings: in vivo
Heart = test: Drug uptake in heart of athymic nude BALB/c mouse xenografted with human MDA-MB-231 cells at 3 to 3.7 MBq, iv at 30 to 60 mins by PET scanning analysis; type: ADME, organism-based; settings: in vivo
Kidney = test: Drug uptake in kidney of athymic nude BALB/c mouse xenografted with human MDA-MB-231 cells at 3 to 3.7 MBq, iv up to 60 mins by PET scanning analysis; type: ADME, organism-based; settings: in vivo, 1 h

Drug uptake [1] | Drug uptake [2] | Ratio (Nucleic Acid) | Drug uptake (Urinary bladder) | Drug uptake (Heart) | Drug uptake (Kidney) | SMILES
Active | Active | 1.5 |  |  |  | O[C@@H]1[C@@H](O)[C@H](O)[C@@H]([18F])[C@H](O)[C@H]1O
Active | Active | 1.7 | Active | Active | Active | O[C@@H]1[C@@H](O)[C@H](O)[C@H]([18F])[C@H](O)[C@H]1O

Source: ChEMBL document CHEMBL2086228, “Radiosynthesis and in vivo tumor uptake of 2-deoxy-2-[(18)F]fluoro-myo-inositol” (Bioorg Med Chem Lett, 2012)
